# According to article PMC11971462, “Generation and validation of a novel multitarget small molecule in glioblastoma” (Cell Death & Disease, 2025):
# Legend:
# GNS166 cells [1] = experiment: Immunofluorescence of pH3, Cleaved Caspase 3, Ki67, PARP1; assay type: cell-based, human; settings: for pH3-positive cells: control 3%
# Experimental: Immunofluorescence assays were performed following standard procedures. Cells were seeded at a density of 2 × 10^4 cells/well in 8-well immunofluorescence chambers (LabTek Thermo) and incubated overnight before treating with increasing concentrations of DDI199. After 48 h, cells were fixed with 4% PFA. Primary antibodies against phosphohistone H3 (pH3) (ab14955, abcam), Cleaved Caspase 3 (AF385, R&D Systems), Ki67 (ab15580, abcam) and PARP1 (ab32064, abcam) were used. Secondary antibodies were Alexa Fluor anti-mouse (A21422, Invitrogen) and Alexa Fluor anti-rabbit (A31572, Invitrogen), and chromatin was stained with DAPI (D9541, Sigma-Aldrich). Axio Observer 7 epifluorescence microscope was used to take pictures, which were later quantified in Qupath.
# recombinant hMAO-B = biological target: T1, recombinant hMAO-B (Homo sapiens, UniProt P27338); experiment: biochemical
# T1 construct: purchased Sigma-Aldrich
# T1 sequence (P27338 whole entry): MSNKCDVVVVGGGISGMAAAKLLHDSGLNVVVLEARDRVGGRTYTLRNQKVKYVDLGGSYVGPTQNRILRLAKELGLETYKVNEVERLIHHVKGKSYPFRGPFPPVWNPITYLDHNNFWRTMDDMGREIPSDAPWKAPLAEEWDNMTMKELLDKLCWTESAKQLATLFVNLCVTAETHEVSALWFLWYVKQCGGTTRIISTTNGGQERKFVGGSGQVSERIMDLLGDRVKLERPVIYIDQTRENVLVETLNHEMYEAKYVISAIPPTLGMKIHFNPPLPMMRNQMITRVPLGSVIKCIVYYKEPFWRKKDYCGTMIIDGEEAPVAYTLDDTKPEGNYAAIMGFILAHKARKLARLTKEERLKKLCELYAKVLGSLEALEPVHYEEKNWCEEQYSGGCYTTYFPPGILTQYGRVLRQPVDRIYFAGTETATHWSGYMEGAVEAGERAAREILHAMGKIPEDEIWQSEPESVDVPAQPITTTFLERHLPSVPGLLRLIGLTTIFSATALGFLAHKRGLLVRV
# Experimental: (§1) The inhibitory capacity of DDI199 on HDACs was studied as previously described. The capacity of DDI199 to inhibit MAOs was studied by mimicking the reaction occurring in cells. Briefly, inhibitor solution containing 10 µM of DDI199 or reference compound was incubated for 30 minutes at 37 °C together with the enzyme solution, containing either recombinant hMAO-A (Sigma-Aldrich) at 0.5 U/mL or hMAO-B (Sigma-Aldrich) at 1.5 U/mL. 200 U/mL horseradish peroxidase (Sigma-Aldrich), 20 mM Ampliflu Red (Sigma-Aldrich) and 100 mM tyramine hydrochloride (Sigma-Aldrich) were then added and absorbance at 570 nm was measured every 5 minutes for 30 minutes. Percentage of inhibition was estimated from these values.
# GNS166 cells [2] = experiment: Cell cycle analysis by flow cytometry; assay type: cell-based, human; settings: for Cell subpopulation in Sub G1: non-treated 1.9%; for Cell subpopulation in G2/M phase: non-treated 25%
# Experimental: Cells were harvested using accutase and washed with PBS. 1·10^6 cells were fixed with 70% cold ethanol at −20 °C for at least 24 h, and incubated with 0.5% Triton X-100 and 25 µg/mL RNase A in PBS for 30 min at room temperature. Then, DNA was stained with […] propidium iodide for 15 min and samples were analyzed using a CytoFLEX flow cytometer (Beckman Coulter Co.).
# patient-derived GSCs = experiment: MTT cell viability, summary for patient-derived GSCs; assay type: cell-based; settings: Homo sapiens, 72 h, summary statement
# Experimental: MTT assay was used to study cell viability. For that, cells were seeded at a density of 1.5 × 10^3 cells/well in 96-well plates, incubated overnight and then treated with increasing concentrations of DDI199. After 72 h of treatment, MTT absorbance was measured at 570 nm. GraphPad Prism software was used to analyze results and calculate IC50 values.
# U87-MG tumor cells = experiment: Re-injection (regrowth) of cells from treated tumors; assay type: in vivo, athymic nude-Foxn1nu mice
# Experimental: For tumor growth experiments, 5 × 10^5 U87-MG cells were subcutaneously injected into two bottom flanks of athymic nude-Foxn1^nu mice, and once tumors reached a size of 25-50 mm^3, mice were sorted into groups taking into account gender and tumor size. Afterwards, mice were intratumorally treated with vehicle, SAHA 100 µM or DDI199 100 µM following a schedule of 5 days on and 2 days off. In combined treatment, mice were treated intraperitoneally with 0.5 mg/Kg of TMZ for 5 days and intratumorally following a schedule of 5 days on and 2 days off with vehicle, SAHA 100 µM or DDI199 100 µM. After 4 weeks of treatment, some mice were kept for washout experiment, while the rest were sacrificed and tumors were extracted for immunohistochemistry and to disaggregate for reinjection and oncosphere formation studies. For reinjection assays, 1.5 × 10^5 cells were subcutaneously injected and tumor size was periodically measured. Once tumors reached end-point criteria, they were extracted for immunohistochemical analysis. An external caliper was used for tumor size measurement and the tumor volume was estimated using the formula V = L · W^2 · 0.5 (where L is tumor length and W is the tumor width).
# recombinant hMAO-A = biological target: T2, recombinant hMAO-A (Homo sapiens, UniProt P21397); experiment: MAO-A inhibition (Ampliflu Red/peroxidase, tyramine); assay type: biochemical; settings: 10 µM compound; read-out: MAO-A inhibition percentage
# T2 construct: purchased Sigma-Aldrich
# T2 sequence (P21397 whole entry): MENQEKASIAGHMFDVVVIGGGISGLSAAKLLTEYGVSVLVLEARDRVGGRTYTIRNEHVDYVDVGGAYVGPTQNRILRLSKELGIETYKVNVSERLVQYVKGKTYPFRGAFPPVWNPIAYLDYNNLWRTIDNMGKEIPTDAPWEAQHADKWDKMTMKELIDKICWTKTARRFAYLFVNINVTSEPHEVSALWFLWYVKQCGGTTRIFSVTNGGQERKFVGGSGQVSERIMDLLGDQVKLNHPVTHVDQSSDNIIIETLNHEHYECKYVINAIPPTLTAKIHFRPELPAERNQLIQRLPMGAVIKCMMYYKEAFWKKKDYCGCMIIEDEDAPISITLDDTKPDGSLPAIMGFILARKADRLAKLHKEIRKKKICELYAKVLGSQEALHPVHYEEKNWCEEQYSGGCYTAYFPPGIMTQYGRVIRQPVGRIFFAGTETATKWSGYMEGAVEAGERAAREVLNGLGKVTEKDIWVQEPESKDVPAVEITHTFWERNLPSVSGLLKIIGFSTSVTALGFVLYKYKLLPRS
# Experimental: as §1
structure (smiles),measurement,setting,value
C#CCN(Cc1cc2cc(OCCCN3CCCCC3)ccc2n1S(=O)(=O)c1ccccc1)C(=O)CCCCCCC(=O)NO [DDI199],pH3-positive cells,"GNS166 cells [1]; GNS166, 1 µM",2%
same,Ki67 positive cells,"GNS166 cells [1]; GNS166, 5 µM",almost blocking completely
same,pH3-positive cells,"GNS166 cells [1]; GNS166, 5 µM",0.6%
same,pH3-positive cells,"GNS166 cells [1]; GNS166, 10 µM",0.1%
same,Cleaved Caspase-3-positive cells,"GNS166 cells [1]; GNS166, 1, 5 and 10 µM",increase
same,PARP-positive cells,"GNS166 cells [1]; GNS166, 1, 5 and 10 µM",dose-dependent induction of apoptosis
same,inhibition at 10 µM,"recombinant hMAO-B; 10 µM compound, read-out: MAO-B inhibition percentage",55%
same,IC50,recombinant hMAO-B; read-out: MAO-B IC50,14.9 µM
same,Cell subpopulation in Sub G1,"GNS166 cells [2]; GNS166, 5 µM",7.2%
same,Cell subpopulation in G2/M phase,"GNS166 cells [2]; GNS166, 5 µM",35%
same,Cell subpopulation in Sub G1,"GNS166 cells [2]; GNS166, 10 µM",11.9%
same,Cell subpopulation in G2/M phase,"GNS166 cells [2]; GNS166, 10 µM",32%
same,IC50,patient-derived GSCs,5 to 13 µM
same,"Tumors reforming after re-injection, combined with TMZ",U87-MG tumor cells; cells from TMZ + DDI199 treated tumors,1 tumor out of 3
same,Reduction of final tumor weight after re-injection versus control,U87-MG tumor cells; cells from treated tumors,~70%
same,Reduction of tumor volume after re-injection versus control,U87-MG tumor cells; cells from treated tumors,60%
same,Mean tumor volume after re-injection,"U87-MG tumor cells; cells from treated tumors, controls over 500 mm^3",200 mm^3
same,inhibition at 10 µM,recombinant hMAO-A,35%
